# From US20240190854A1, “PYRIMIDINE OR PYRIDINE DERIVATIVES USEFUL AS HCN2 MODULATORS” (King's College London, priority 2021, published 2024)
# Where a name gives a salt, the structure may show the parent alone.
# What was measured:
# HCN2 = HCN2 (Homo sapiens (Human), UniProt Q9UL51); test: HCN2 current assay using PatchXpress 7000A; assay type: cell-based; details: PatchXpress protocol; read-out: PX HCN2 IC50
# Protocol: (§1) Example 126A, Using PatchXpress 7000A
# (§2) Solutions for recording HCN currents were:
# The membrane voltage was then stepped back to −30 mV for a further 8 seconds.
# (§3) The peak inward current measured at the end of the pulse to −110 mV (HCN1 and HCN2) or −130 mV (HCN4) was measured and any leak current subtracted to calculate the HCN current. The HCN current amplitude was measured after each control or compound addition and normalized to the control amplitude (Control A).
# (§4) All experiments were performed at room temperature (approximately 22° C.).
# (§5) Each test compound concentration was applied to the cell for seven (7) minutes, at which point the next cumulative concentration was applied.
# HCN4 = HCN4 (Homo sapiens (Human), UniProt Q9Y3Q4); test: HCN4 current assay using PatchXpress 7000A; assay type: cell-based; details: PatchXpress protocol; read-out: PX HCN4 IC50
# Sequence of HCN4 (Q9Y3Q4 whole entry, species assumed): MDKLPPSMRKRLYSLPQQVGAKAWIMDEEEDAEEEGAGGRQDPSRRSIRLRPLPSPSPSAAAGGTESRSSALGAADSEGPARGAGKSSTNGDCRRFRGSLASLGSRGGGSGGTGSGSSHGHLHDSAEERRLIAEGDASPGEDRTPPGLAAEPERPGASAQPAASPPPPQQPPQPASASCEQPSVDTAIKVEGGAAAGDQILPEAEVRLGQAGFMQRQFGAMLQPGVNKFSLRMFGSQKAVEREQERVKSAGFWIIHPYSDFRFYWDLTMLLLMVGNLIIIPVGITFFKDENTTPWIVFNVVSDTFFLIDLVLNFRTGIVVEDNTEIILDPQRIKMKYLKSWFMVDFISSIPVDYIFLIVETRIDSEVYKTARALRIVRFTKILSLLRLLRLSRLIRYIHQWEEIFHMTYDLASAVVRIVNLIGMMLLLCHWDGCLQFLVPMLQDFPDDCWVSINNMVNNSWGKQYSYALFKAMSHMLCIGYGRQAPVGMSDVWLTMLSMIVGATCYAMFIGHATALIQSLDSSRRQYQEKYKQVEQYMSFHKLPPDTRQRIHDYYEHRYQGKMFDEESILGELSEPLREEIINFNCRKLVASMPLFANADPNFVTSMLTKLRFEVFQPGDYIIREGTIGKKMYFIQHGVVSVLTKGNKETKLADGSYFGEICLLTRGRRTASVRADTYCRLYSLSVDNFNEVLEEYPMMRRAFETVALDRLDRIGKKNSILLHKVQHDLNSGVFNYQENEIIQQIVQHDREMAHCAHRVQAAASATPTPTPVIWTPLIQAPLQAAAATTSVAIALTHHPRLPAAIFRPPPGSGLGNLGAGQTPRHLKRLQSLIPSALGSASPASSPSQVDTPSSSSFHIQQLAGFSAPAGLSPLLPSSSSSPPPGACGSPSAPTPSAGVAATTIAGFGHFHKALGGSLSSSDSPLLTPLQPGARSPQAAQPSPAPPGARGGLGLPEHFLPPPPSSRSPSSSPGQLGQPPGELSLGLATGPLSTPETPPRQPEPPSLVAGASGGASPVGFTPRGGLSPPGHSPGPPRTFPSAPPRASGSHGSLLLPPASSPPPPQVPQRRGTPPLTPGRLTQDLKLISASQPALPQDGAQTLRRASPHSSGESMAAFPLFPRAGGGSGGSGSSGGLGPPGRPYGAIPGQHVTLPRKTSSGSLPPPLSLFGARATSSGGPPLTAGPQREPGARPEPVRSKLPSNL
# Protocol: as §1, §2, §3, §4, §5
# Sequence of HCN2 (Q9UL51 whole entry): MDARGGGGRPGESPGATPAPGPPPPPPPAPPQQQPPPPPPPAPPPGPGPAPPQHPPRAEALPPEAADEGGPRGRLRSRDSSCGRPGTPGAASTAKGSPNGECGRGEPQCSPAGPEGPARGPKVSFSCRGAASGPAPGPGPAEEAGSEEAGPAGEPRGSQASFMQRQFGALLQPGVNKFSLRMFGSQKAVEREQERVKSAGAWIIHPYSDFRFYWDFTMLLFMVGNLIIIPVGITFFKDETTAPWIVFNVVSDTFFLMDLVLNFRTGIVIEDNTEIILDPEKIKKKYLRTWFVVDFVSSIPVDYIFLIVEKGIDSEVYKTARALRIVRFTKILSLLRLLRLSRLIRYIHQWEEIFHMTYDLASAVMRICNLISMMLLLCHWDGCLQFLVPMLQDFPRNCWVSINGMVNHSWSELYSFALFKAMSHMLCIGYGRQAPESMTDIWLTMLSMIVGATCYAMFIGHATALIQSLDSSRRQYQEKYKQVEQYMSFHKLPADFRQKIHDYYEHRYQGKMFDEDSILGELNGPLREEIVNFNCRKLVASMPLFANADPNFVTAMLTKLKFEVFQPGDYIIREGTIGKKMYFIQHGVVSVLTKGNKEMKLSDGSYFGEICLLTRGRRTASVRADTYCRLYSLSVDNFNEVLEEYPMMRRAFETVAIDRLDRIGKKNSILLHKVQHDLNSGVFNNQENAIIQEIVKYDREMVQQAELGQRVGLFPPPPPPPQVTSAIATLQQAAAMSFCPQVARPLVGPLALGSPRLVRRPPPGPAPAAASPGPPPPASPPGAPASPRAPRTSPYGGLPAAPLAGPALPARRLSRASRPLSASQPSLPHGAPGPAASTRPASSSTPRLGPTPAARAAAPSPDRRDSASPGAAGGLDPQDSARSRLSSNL
SMILES,IC50 (HCN2) [µM],IC50 (HCN4) [µM]
"CC(O)c1ccc2c(-c3ccccc3[C@@H](N)Cc3ccccn3)noc2c1 (stereo partly drawn) [Example 35, (S)-1-[2-(6-[1-Hydroxyethyl]benzo[d]isoxazol-3-yl)phenyl]-2-(pyridine-2-yl)ethan-1-amine]",8.9,
"CC(C)n1nc(-c2ccccc2[C@@H](N)Cc2cccc(Br)n2)c2ccccc21 [Example 64, (S)-2-(6-Bromopyridine-2-yl)-1-[2-(1-isopropyl-1H-indazole-3-yl)phenyl]ethan-1-amine hydrochloride]",1.3,6.4
"N[C@@H](Cc1ccccn1)c1ccc(Br)cc1-c1noc2ccccc12 [Example 85, (S)-1-[2-(Benzo[d]isoxazol-3-yl)-4-bromophenyl]-2-(pyridine-2-yl)ethan-1-amine]",13,
"N#Cc1ccc(C[C@H](N)c2ccccc2-c2noc3cc(Br)ccc23)nc1 [Example 81, (S)-1-[2-(6-Bromobenzo[d]isoxazol-3-yl)phenyl]-2-(5-cyanopyridine-2-yl)ethan-1-amine]",10.8,> 30
"N[C@@H](Cc1ccccn1)c1cccc(Br)c1-c1noc2ccccc12 [Example 86, (S)-1-[2-(Benzo[d]isoxazol-3-yl)-3-bromophenyl]-2-(pyridine-2-yl)ethan-1-amine hydrochloride]",17.4,
"Cc1cc(C#N)cnc1C[C@H](N)c1ccccc1-c1noc2ccccc12 [Example 80, (S)-1-[2-(Benzo[d]isoxazol-3-yl)phenyl]-2-(3-methyl-5-cyanopyridin-2-yl)ethan-1-amine]",1.9,
"CC(c1ccccn1)C(N)c1ccccc1-c1noc2ccccc12 (single isomer, unassigned; diastereomer 1) [Example 1, 1-[2-(Benzo[d]isoxazol-3-yl)phenyl]-2-(pyridin-2-yl)propan-1-amine hydrochloride (diastereomer 1)]",7.4,
"N[C@@H](Cc1ccccn1)c1ccccc1-c1noc2ccc(Br)cc12 [Example 113, (S)-1-[2-(5-Bromobenzo[d]isoxazol-3-yl)phenyl]-2-(pyridine-2-yl)ethan-1-amine hydrochloride]",22.9,
"CC[C@H](c1ccccn1)[C@H](N)c1ccccc1-c1noc2ccccc12 [Example 45, (1S,2S)-1-[2-(Benzo[d]isoxazol-3-yl)phenyl]-2-(pyridin-2-yl)butan-1-amine hydrochloride]",22.1,
"N#Cc1cccc(C[C@H](N)c2ccccc2-c2noc3cc(Br)ccc23)n1 [Example 120, (S)-{2-Amino-[2-(6-bromobenzo[d]isoxazol-3-yl)phenyl]ethyl}-6-cyanopyridine]",1.6,
"Cc1ccc(C(=O)N(C)C)nc1C[C@H](N)c1ccccc1-c1noc2ccccc12 [Example 8, (S)-6-{2-Amino-2-[2-(benzo[d]isoxazol-3-yl)phenyl]ethyl}-N,N,5-trimethylpyridine-2-carboxamide]",2.5,
"N[C@@H](Cc1ccccn1)c1ccccc1-c1noc2cc(C#CCO)ccc12 [Example 32, (S)-1-[2-(6-[3-Hydroxyprop-1-yn-1-yl]benzo[d]isoxazol-3-yl)phenyl]-2-(pyridine-2-yl)ethan-1-amine hydrochloride]",8.5,
"COc1cccc(C[C@H](N)c2ccccc2-c2noc3ccccc23)n1 [Example 115, (S)-1-[2-(Benzo[d]isoxazol-3-yl)phenyl]-2-(6-methoxypyridine-2-yl)ethan-1-amine hydrochloride]",0.69,
"COc1ccc(-c2noc3ccccc23)c([C@@H](N)Cc2ccccn2)c1 [Example 82, (S)-1-[2-(Benzo[d]isoxazol-3-yl)-5-methoxyphenyl]-2-(pyridine-2-yl)ethan-1-amine hydrochloride]",26.6,
"N#Cc1ccc(-c2noc3ccccc23)c([C@@H](N)Cc2ccccn2)c1 [Example 37, (S)-1-[2-(Benzo[d]isoxazol-3-yl)-5-cyanophenyl]-2-(pyridine-2-yl)ethan-1-amine hydrochloride]",14,

# Second part, the molecule after the results:
IC50 (HCN2) [µM],IC50 (HCN4) [µM],SMILES
5.9,> 30,"CS(=O)(=O)Nc1cccc(C[C@H](N)c2ccccc2-c2noc3ccccc23)n1 [Example 123, (S)—N-(6-{2-Amino-2-[2-(benzo[d]isoxazol-3-yl)phenyl]ethyl}pyridine-2-yl)methanesulfonamide hydrochloride]"
8.7,,"CC(=O)Nc1cccnc1C[C@H](N)c1ccccc1-c1noc2ccccc12 [Example 76, (S)—N-(2-{2-Amino-2-[2-(benzo[d]isoxazol-3-yl)phenyl]ethyl}pyridin-3-yl)acetamide hydrochloride]"
1.7,18.8,"N[C@@H](Cc1ccccn1)c1c(Br)cccc1-c1noc2ccccc12 [Example 87, (S)-1-[2-(Benzo[d]isoxazol-3-yl)-6-bromophenyl]-2-(pyridine-2-yl)ethan-1-amine hydrochloride]"
2.7,> 30,"N[C@@H](Cc1ccc(Br)cn1)c1ccccc1-c1noc2ccccc12 [Example 88, (S)-1-[2-(Benzo[d]isoxazol-3-yl)phenyl]-2-(5-bromopyridine-2-yl)ethan-1-amine hydrochloride]"
1.2,4.7,"Cc1noc(C)c1-c1cccc(C[C@H](N)c2ccccc2-c2noc3ccccc23)n1 [Example 94, (S)-1-[2-(Benzo[d]isoxazol-3-yl)phenyl]-2-[6-(3,5-dimethylisoxazol-4-yl)pyridine-2-yl)-ethan-1-amine hydrochloride]"
1,2.1,"N[C@@H](Cc1cccc(N2CCOCC2)n1)c1ccccc1-c1noc2ccccc12 [Example 54, (S)-1-[2-(Benzo[d]isoxazol-3-yl)phenyl]-2-(6-morpholinopyridine-2-yl)ethane-1-amine hydrochloride]"
4.9,,"N[C@@H](Cc1ncccc1C1CC1)c1ccccc1-c1noc2ccccc12 [Example 79, (S)-1-[2-(Benzo[d]isoxazol-3-yl)phenyl]-2-(3-cyclopropylpyridin-2-yl)ethan-1-amine formate]"
16,,"N[C@@H](Cc1ccccn1)c1ccccc1-c1noc2cccc(Br)c12 [Example 43, (S)-1-[2-(4-Bromobenzo[d]isoxazol-3-yl)phenyl]-2-(pyridine-2-yl)ethan-1-amine hydrochloride]"
5.7,,"CS(=O)(=O)c1nc(C[C@H](N)c2ccccc2-c2noc3ccccc23)ccc1F [Example 7, (S)-1-[2-(Benzo[d]isoxazol-3-yl)phenyl]-2-(5-fluoro-6-methylsulfonylpyridine-2-yl)ethan-1-amine hydrochloride]"
13,,"Cc1ccc([C@@H](N)Cc2ccccn2)c(-c2noc3ccccc23)c1 [Example 38, (S)-1-[2-(Benzo[d]isoxazol-3-yl)-4-methylphenyl]-2-(pyridine-2-yl)ethan-1-amine hydrochloride]"
6.2,,"N[C@@H](Cc1cccc(N2CC[C@H](O)C2)n1)c1ccccc1-c1noc2ccccc12 [Example 53, (S)-1-(6-{(S)-2-Amino-2-[2-(benzo[d]isoxazol-3-yl)phenyl]ethyl}pyridine-2-yl)pyrrolidin-3-ol hydrochloride]"
16.7,,"N[C@@H](Cc1ccccn1)c1ccccc1-c1noc2cc(C3CC3)ccc12 [Example 34, (S)-1-[2-(6-Cyclopropylbenzo[d]isoxazol-3-yl)phenyl]-2-(pyridine-2-yl)ethan-1-amine]"
